Measured values from ChEMBL document CHEMBL4002608, “Discovery of new MurA inhibitors using induced-fit simulation and docking” (Bioorg Med Chem Lett, 2017).
The source made the active and inactive calls. No cut-off for these calls is given here.

Assays:
[1] = system: Escherichia coli DH5[alpha]; assay: Inhibition of Escherichia coli DH5alpha C-terminal His6-tagged MurA expressed in Escherichia coli BL21(DE3) assessed as residual activity at 100 uM using UNAG as substrate after 15 mins in presence of PEP by malachite green dye based spectrophotometric method relative to control
[2] = Inhibition of Escherichia coli MurA
Staphylococcus aureus = assay: Antibacterial activity against Staphylococcus aureus ATCC 29213 after 20 to 24 hrs by broth microdilution assay; type: functional
[3] = Inhibition of Escherichia coli DH5alpha C-terminal His6-tagged MurA expressed in Escherichia coli BL21(DE3) using UNAG as substrate after 15 mins in presence of PEP by malachite green dye based spectrophotometric method; parameters: species or system Escherichia coli DH5[alpha]
Escherichia coli = assay: Antibacterial activity against Escherichia coli ATCC 25922 after 20 to 24 hrs by broth microdilution assay; type: functional
[4] = Inhibition of Haemophilus influenzae MurA
[5] = Inhibition of Staphylococcus aureus MurA
[6] = system: Escherichia coli DH5[alpha]; assay: (§1) Irreversible inhibition of Escherichia coli DH5alpha C-terminal His6-tagged MurA expressed in Escherichia coli BL21(DE3) at 0.8 uM preincubated for 30 mins followed by compound dilution and subsequent substrate UNAG addition measured after 20 mins in presence of PEP by malachite green dye based spectrophotometric method
[7] = system: Escherichia coli DH5[alpha]; assay: as §1, with “Reversible” for “Irreversible”, “5” for “0.8”
[8] = Inhibition of Enterobacter cloacae MurA
[9] = Inhibition of methicillin-resistant Staphylococcus aureus MurA

Row | Activity [1] [%] | Compound | further results
1 | 96 | O=C(O)c1nn(CCCc2ccccc2)c2c1CN(C(=O)c1cnc[nH]1)CC2 | –
2 | 99 | O=C(Nc1cc(CCc2ccccc2)ccn1)[C@H]1CCCN(c2ncccn2)C1 | –
3 | 92 | CO[C@H](C(=O)N1CCc2c(cnc(C)c2CNC(=O)c2cccs2)C1)c1ccccc1 | –
4 | 86 | Cc1ccccc1-c1cccc(CN[C@H]2CCCN(c3ncccn3)C2)c1 | –
5 | 98 | Cc1cc(C)nc(-c2cccc3c2O[C@@H](CNC(=O)c2ccc(N4CCN(C)CC4)cc2)C3)n1 | –
6 | 96 | CC(=O)N1CCN([C@H](C(=O)O)c2c(C(=O)O)n(Cc3ccccc3)c3ccccc23)CC1 | –
7 | – | C=C1C(=O)OCC1O (racemic) [(+/-)-TULIPALINE B] | IC50 [2]: 0.2 µM
8 | 85 | CS(=O)(=O)N1CCc2cc(C(=O)N3CCC(c4cc5ccccc5[nH]4)CC3)ccc21 | –
9 | < 50 | O=C(O)c1ccc(-c2nccn2Cc2nc3ccccc3c(=O)[nH]2)cc1 | Activity (Staphylococcus aureus): inactive; IC50 [3]: 82 µM; Activity (Escherichia coli): inactive
10 | 78 | CCOc1ccc(N2C(=O)[C@@H]3C4c5ccccc5C(C(=O)O)(c5ccccc54)[C@@H]3C2=O)c([N+](=O)[O-])c1 | –
11 | 82 | c1ccc(CN2CC[C@@H](Nc3nncc(-c4cc5ccccc5o4)n3)C2)cc1 | –
12 | 99 | Cc1ccccc1-n1cc(CN[C@H]2CCCN(c3ncccn3)C2)cn1 | –
13 | 100 | CCOc1ccc(N2C(=O)[C@@H]3C4c5ccccc5C(C(=O)O)(c5ccccc54)[C@@H]3C2=O)cc1 | –
14 | 86 | O=C(CCN1CCCO1)N1CCc2[nH]nc(-c3cccc4ccccc34)c2C1 | –
15 | 85 | O=C(O)C[C@H]1c2ccccc2CCN1C(=O)c1cc(=O)[nH]c2ccccc12 | –
16 | < 50 | O=C(c1cnn(Cc2ccccc2)c1)N1CC=C(c2c[nH]c3ncccc23)CC1 | Activity (Staphylococcus aureus): inactive; IC50 [3]: 109 µM; Activity (Escherichia coli): inactive
17 | 98 | O=C1[C@@H]2C3c4ccccc4C(C(=O)O)(c4ccccc43)[C@@H]2C(=O)N1c1cccc([N+](=O)[O-])c1 | –
18 | 100 | Cc1c(C(=O)N2CCC[C@@H](C(N)=O)C2)sc2ncnc(NCCCc3ccccc3)c12 | –

Row | Activity [1] [%] | Compound | further results
19 | 91 | O=C(O)COc1ccccc1[C@@H]1C2=C(CCCC2=O)Nc2nc(SCc3ccccn3)nn21 | –
20 | – | O=C1C(Oc2ccc(O)cc2)=C(Cl)C(=O)c2ncccc21 | IC50 [4]: 2.8 µM
21 | 99 | CS(=O)(=O)N1CCN([C@H](C(=O)O)c2c(C(=O)O)n(Cc3ccccc3)c3ccccc23)CC1 | –
22 | 91 | O=C(O)c1nn(CCCc2ccccc2)c2c1CN(C(=O)c1ccc[nH]1)CC2 | –
23 | 66 | Cc1ncc2c(c1CNC(=O)c1cc3ccccc3[nH]1)CCN(C(=O)C1=CCCC1)C2 | –
24 | 62 | O=C(C1=C(O)C(=O)N(c2nnc(SCc3ccccc3)s2)[C@@H]1c1ccc(O)cc1)c1ccco1 | –
25 | – | O=c1oc2c(Cl)cc(O)c(Cl)c2s1 | IC50 [2]: 0.28 µM; IC50 [5]: 1.09 µM
26 | 63 | CCc1cc(C(=O)N2CCN[C@H](C(=O)O)C2)c(NC(=O)c2ccccc2)s1 | –
27 | 98 | C[C@@H](Oc1ccc2ccccc2c1)C(=O)NCc1nc(-c2ncccn2)no1 | –
28 | 100 | O=C(O)[C@H]1CC2(CCN(C(=O)c3cc4ccccc4[nH]3)CC2)CN1C(=O)C1CC1 | –
29 | 94 | CN1CCN([C@H](C(=O)O)c2c(C(=O)O)n(Cc3ccccc3)c3ccccc23)CC1 | –
30 | < 50 | C[C@@H]1O[C@@H]1P(=O)(O)O [FOSFOMYCIN] | inhibition [6]: Active; IC50 [3]: 41 µM
31 | < 50 | Cc1n[nH]c(S/C(=C/c2ccc(-c3cccc(C(=O)O)c3)o2)C(=O)O)n1 | Activity (Staphylococcus aureus): inactive; IC50 [3]: 1 µM; inhibition [7]: Active; Activity (Escherichia coli): inactive
32 | 87 | O=C(O)c1c([C@@H](C(=O)O)N2CCN(c3ccccn3)CC2)c2ccccc2n1Cc1ccccc1 | –
33 | – | O=[N+]([O-])/C(Br)=C/c1ccc(Br)o1 | IC50 [2]: 2.8 µM; IC50 [5]: 3.9 µM
34 | 100 | O=C(O)[C@H]1C[C@@H](C(=O)N2CCCC2)CN(C(=O)c2[nH]nc3c2CCCC3)C1 | –
35 | – | CC1=C(O)C(=O)[C@H]2O[C@@H]2C1=O | IC50 [8]: 14 µM
36 | – | C=C(C(=O)OC)[C@@H]1[C@@H](CCCCCCCC)OC(=O)[C@@H]1O | IC50 [9]: 6.7 µM; IC50 [2]: 2.8 µM
